# Laboratory results: patent US9346799B2, “Useful combinations of monobactam antibiotics with beta-lactamase inhibitors” (Basilea Pharmaceutica AG, priority 2005, dated 2016)
# What was measured:
# Experiment in all cases: MIC by broth microdilution (NCCLS M7-A5)
# [1] = system: Pseudomonas aeruginosa 1973E
# Serratia marcescens S6 = system: Serratia marcescens S6
# [2] = system: Klebsiella pneumoniae CF104
# Acinetobacter sp. J2 = details: Acinetobacter baumannii J2
# [3] = system: Enterobacter aerogenes B1; details: E. aerogenes B1; + compound 323 and sulbactam, 4 mg/L each
# [4] = system: Stenotrophomonas malthophilia 1AC736; details: Stenotrophomonas maltophilia 1AC736
# [5] = system: Enterobacter aerogenes Zayakosky; details: E. aerogenes Zayakosky; + compound 323 and sulbactam, 4 mg/L each
# [6] = system: Pseudomonas aeruginosa MK1184
# Enterobacter cloacae P99 = system: Enterobacter cloacae P99
# [7] = + 102 + clavulanate, 4 mg/L each
# [8] = + 324 + clavulanate, 4 mg/L each
# [9] = + 206 + clavulanate, 4 mg/L each
# [10] = + 315 + clavulanate, 4 mg/L each
Structure (SMILES),"MIC of antibiotic [1, 7] [µg/mL]",MIC of antibiotic (Serratia marcescens S6; [7]) [µg/mL],"MIC of antibiotic [2, 7] [µg/mL]",MIC of antibiotic (Acinetobacter sp. J2; [7]) [µg/mL],"MIC of antibiotic [4, 7] [µg/mL]","MIC of antibiotic [1, 8] [µg/mL]",MIC of antibiotic ([1]; antibiotic alone) [µg/mL],MIC of antibiotic (Serratia marcescens S6; [8]) [µg/mL],MIC of antibiotic (Serratia marcescens S6; antibiotic alone) [µg/mL],MIC of antibiotic (Enterobacter cloacae P99; [7]) [µg/mL],MIC of antibiotic (Enterobacter cloacae P99; [8]) [µg/mL],MIC of antibiotic (Enterobacter cloacae P99; antibiotic alone) [µg/mL],"MIC of antibiotic [2, 8] [µg/mL]",MIC of antibiotic ([2]; antibiotic alone) [µg/mL],MIC of antibiotic (Acinetobacter sp. J2; [8]) [µg/mL],MIC of antibiotic (Acinetobacter sp. J2; antibiotic alone) [µg/mL],MIC of antibiotic ([4]; antibiotic alone) [µg/mL],"MIC of antibiotic [6, 7] [µg/mL]","MIC of antibiotic [6, 8] [µg/mL]",MIC of antibiotic ([6]; antibiotic alone) [µg/mL],also measured
"C[C@H]1[C@H](NC(=O)/C(=N\OC(C)(C)C(=O)O)c2csc(N)n2)C(=O)N1S(=O)(=O)O [Aztreonam, aztreonam, reference compound]",8,2,0.5,16,4,–,–,–,–,–,–,–,–,–,–,–,–,–,–,–,"MIC of antibiotic ([1]; + 102 + sulbactam, 4 mg/L each): 4 µg/mL; MIC of antibiotic (Serratia marcescens S6; + 102 + sulbactam, 4 mg/L each): 2 µg/mL; MIC of antibiotic ([2]; + 102 + sulbactam, 4 mg/L each): 1 µg/mL; MIC of antibiotic (Acinetobacter sp. J2; + 102 + sulbactam, 4 mg/L each): 4 µg/mL; Minimal Inhibitory Concentration of antibiotic [3]: 8 mg/L; MIC of antibiotic ([4]; + 102 + sulbactam, 4 mg/L each): 8 µg/mL; Minimal Inhibitory Concentration of antibiotic [5]: 8 mg/L; MIC of antibiotic ([6]; + 102 + sulbactam, 4 mg/L each): 16 µg/mL"
CC1C(NC(=O)C(=NOCc2cc(=O)c(O)cn2O)c2nsc(N)n2)C(=O)N1S(=O)(=O)O (centres unmarked) [Compound 2],–,–,–,–,–,–,8,–,>32,–,–,>32,–,>32,–,4,4,–,–,8,"MIC of antibiotic (Enterobacter cloacae P99; [9]): 16 µg/mL; MIC of antibiotic (Acinetobacter sp. J2; [9]): 16 µg/mL; MIC of antibiotic [4, 9]: 0.5 µg/mL; MIC of antibiotic [6, 9]: 16 µg/mL"
"C[C@H]1[C@H](NC(=O)/C(=N\OCc2cc(=O)c(O)cn2C)c2csc(N)n2)C(=O)N1S(=O)(=O)O [Compound 6, (3S,4S)-3-{(2Z)-2-(2-amino(1,3-thiazol-4-yl))-3-[(5-hydroxy-1-methyl-4-oxo(2-hydropyridyl))methoxy]-3-azaprop-2-enoylamino}-4-methyl-2-oxoazetidinesulfonic acid]",–,–,–,–,–,–,–,–,–,–,–,–,–,–,–,–,–,–,–,–,"MIC of antibiotic [1, 9]: >32 µg/mL; MIC of antibiotic [1, 10]: >32 µg/mL; MIC of antibiotic (Serratia marcescens S6; [9]): 4 µg/mL; MIC of antibiotic (Serratia marcescens S6; [10]): 4 µg/mL; MIC of antibiotic (Enterobacter cloacae P99; [9]): 16 µg/mL; MIC of antibiotic (Enterobacter cloacae P99; [10]): 4 µg/mL; MIC of antibiotic [2, 9]: 0.5 µg/mL; MIC of antibiotic [2, 10]: 0.5 µg/mL; MIC of antibiotic (Acinetobacter sp. J2; [9]): 32 µg/mL; MIC of antibiotic (Acinetobacter sp. J2; [10]): >32 µg/mL; MIC of antibiotic [4, 9]: 4 µg/mL; MIC of antibiotic [4, 10]: 2 µg/mL; MIC of antibiotic [6, 9]: >32 µg/mL; MIC of antibiotic [6, 10]: >32 µg/mL"
Nc1nc(C(=NOCc2cc(=O)c(O)cn2O)C(=O)NC2CN(S(=O)(=O)O)C2=O)cs1 (centres unmarked) [Compound 9],8,1,0.5,>32,0.25,–,8,–,16,32,–,>32,–,>32,–,>32,0.5,4,–,>32,–

# Second part, led by results:
"MIC of antibiotic [1, 7] [µg/mL]",MIC of antibiotic (Serratia marcescens S6; [7]) [µg/mL],"MIC of antibiotic [2, 7] [µg/mL]",MIC of antibiotic (Acinetobacter sp. J2; [7]) [µg/mL],"MIC of antibiotic [4, 7] [µg/mL]","MIC of antibiotic [1, 8] [µg/mL]",MIC of antibiotic ([1]; antibiotic alone) [µg/mL],MIC of antibiotic (Serratia marcescens S6; [8]) [µg/mL],MIC of antibiotic (Serratia marcescens S6; antibiotic alone) [µg/mL],MIC of antibiotic (Enterobacter cloacae P99; [7]) [µg/mL],MIC of antibiotic (Enterobacter cloacae P99; [8]) [µg/mL],MIC of antibiotic (Enterobacter cloacae P99; antibiotic alone) [µg/mL],"MIC of antibiotic [2, 8] [µg/mL]",MIC of antibiotic ([2]; antibiotic alone) [µg/mL],MIC of antibiotic (Acinetobacter sp. J2; [8]) [µg/mL],MIC of antibiotic (Acinetobacter sp. J2; antibiotic alone) [µg/mL],MIC of antibiotic ([4]; antibiotic alone) [µg/mL],"MIC of antibiotic [6, 7] [µg/mL]","MIC of antibiotic [6, 8] [µg/mL]",MIC of antibiotic ([6]; antibiotic alone) [µg/mL],Structure (SMILES),also measured
8,0.25,1,8,–,16,8,0.25,0.25,8,4,>32,1,>32,8,16,1,8,8,8,"C[C@H](ON1C(=O)[C@@H](NC(=O)/C(=N\OCc2cc(=O)c(O)cn2O)c2csc(N)n2)[C@@H]1C)C(=O)O [Compound 23, (2S)-2-((3S,4S)-3-{(2Z)-2-(2-amino(1,3-thiazol-4-yl))-3-[(1,5-dihydroxy-4-oxo(2-hydropyridyl))methoxy]-3-azaprop-2-enoylamino}-4-methyl-2-oxoazetidinyloxy)propanoic acid]","MIC of antibiotic ([1]; + 324 + sulbactam, 4 mg/L each): 16 µg/mL; MIC of antibiotic (Serratia marcescens S6; + 324 + sulbactam, 4 mg/L each): 0.5 µg/mL; MIC of antibiotic (Enterobacter cloacae P99; + 324 + sulbactam, 4 mg/L each): 8 µg/mL; MIC of antibiotic ([2]; + 324 + sulbactam, 4 mg/L each): 2 µg/mL; MIC of antibiotic (Acinetobacter sp. J2; + 324 + sulbactam, 4 mg/L each): 2 µg/mL; MIC of antibiotic ([6]; + 324 + sulbactam, 4 mg/L each): 8 µg/mL"
16,0.5,>32,>32,0.5,8,–,0.25,–,32,8,–,1,2,4,–,–,4,4,–,CC1(C)C(NC(=O)C(=NOCc2cc(=O)c(O)cn2O)c2nsc(N)n2)C(=O)N1OS(=O)(=O)O (centres unmarked) [Compound 32],"MIC of antibiotic [4, 8]: 0.5 µg/mL"
4,1,0.5,16,1,8,16,1,1,8,4,>32,0.5,>32,>32,>32,4,4,8,>32,NC(=O)OCC1C(NC(=O)C(=NOCc2cc(=O)c(O)cn2O)c2csc(N)n2)C(=O)N1OS(=O)(=O)O (centres unmarked) [Compound 25],"MIC of antibiotic [4, 8]: 1 µg/mL"
–,–,–,–,–,–,8,–,8,–,–,>32,–,>32,–,>32,8,–,–,>32,"C[C@H]1[C@H](NC(=O)/C(=N\OCc2cc(=O)c(O)cn2O)c2nccc(N)n2)C(=O)N1S(=O)(=O)O [Compound 21, (3S,4S)-3-{(2Z)-2-(4-aminopyrimidin-2-yl)-3-[(1,5-dihydroxy-4-oxo(2-hydropyridyl))methoxy]-3-azaprop-2-enoylamino}-4-methyl-2-oxoazetidinesulfonic acid]","MIC of antibiotic ([1]; + 102 + sulbactam, 4 mg/L each): 16 µg/mL; MIC of antibiotic ([1]; + 324 + sulbactam, 4 mg/L each): 16 µg/mL; MIC of antibiotic (Serratia marcescens S6; + 102 + sulbactam, 4 mg/L each): 16 µg/mL; MIC of antibiotic (Serratia marcescens S6; + 324 + sulbactam, 4 mg/L each): 4 µg/mL; MIC of antibiotic (Enterobacter cloacae P99; + 102 + sulbactam, 4 mg/L each): 32 µg/mL; MIC of antibiotic (Enterobacter cloacae P99; + 324 + sulbactam, 4 mg/L each): 8 µg/mL; MIC of antibiotic ([2]; + 102 + sulbactam, 4 mg/L each): 2 µg/mL; MIC of antibiotic ([2]; + 324 + sulbactam, 4 mg/L each): 4 µg/mL; MIC of antibiotic (Acinetobacter sp. J2; + 102 + sulbactam, 4 mg/L each): 2 µg/mL; MIC of antibiotic (Acinetobacter sp. J2; + 324 + sulbactam, 4 mg/L each): 2 µg/mL; MIC of antibiotic ([4]; + 102 + sulbactam, 4 mg/L each): 8 µg/mL; MIC of antibiotic ([4]; + 324 + sulbactam, 4 mg/L each): 4 µg/mL; MIC of antibiotic ([6]; + 102 + sulbactam, 4 mg/L each): 32 µg/mL; MIC of antibiotic ([6]; + 324 + sulbactam, 4 mg/L each): 32 µg/mL"
